Reference: ChEMBL document CHEMBL4732068, “The discovery of novel antitrypanosomal 4-phenyl-6-(pyridin-3-yl)pyrimidines” (Eur J Med Chem, 2021)
Activity calls are given as the source filed them. No cut-off for these calls is given here.

Assays:
[1] = target: Histone deacetylase 1 (Homo sapiens) (UniProt Q13547); experiment: Inhibition of recombinant human HDAC1 by fluorescence based microplate reader analysis
Cytochrome P450 2C19 = Cytochrome P450 2C19 (Homo sapiens, UniProt P33261); experiment: Inhibition of CYP2C19 in human liver microsomes by luminescence based P450-[…] assay; type: ADME
Chain of Cytochrome P450 2C19 (P33261 whole entry): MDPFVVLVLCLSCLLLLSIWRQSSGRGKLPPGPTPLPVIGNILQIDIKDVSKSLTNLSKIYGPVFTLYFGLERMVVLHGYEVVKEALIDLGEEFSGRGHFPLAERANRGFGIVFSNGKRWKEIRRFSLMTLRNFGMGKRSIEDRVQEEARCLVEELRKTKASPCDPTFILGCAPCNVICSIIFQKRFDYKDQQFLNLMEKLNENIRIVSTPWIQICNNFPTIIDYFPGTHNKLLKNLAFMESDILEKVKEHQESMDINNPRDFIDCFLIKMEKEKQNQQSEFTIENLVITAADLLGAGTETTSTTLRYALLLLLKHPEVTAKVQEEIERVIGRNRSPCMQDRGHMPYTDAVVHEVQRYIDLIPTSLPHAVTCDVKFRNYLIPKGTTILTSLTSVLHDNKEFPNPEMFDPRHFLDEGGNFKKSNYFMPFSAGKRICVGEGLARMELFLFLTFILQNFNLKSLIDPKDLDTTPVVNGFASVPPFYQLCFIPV

Cytochrome P450 2C9 = Cytochrome P450 2C9 (Homo sapiens, UniProt P11712); experiment: Inhibition of CYP2C9 in human liver microsomes by luminescence based P450-[…] assay
Chain of Cytochrome P450 2C9 (P11712 whole entry): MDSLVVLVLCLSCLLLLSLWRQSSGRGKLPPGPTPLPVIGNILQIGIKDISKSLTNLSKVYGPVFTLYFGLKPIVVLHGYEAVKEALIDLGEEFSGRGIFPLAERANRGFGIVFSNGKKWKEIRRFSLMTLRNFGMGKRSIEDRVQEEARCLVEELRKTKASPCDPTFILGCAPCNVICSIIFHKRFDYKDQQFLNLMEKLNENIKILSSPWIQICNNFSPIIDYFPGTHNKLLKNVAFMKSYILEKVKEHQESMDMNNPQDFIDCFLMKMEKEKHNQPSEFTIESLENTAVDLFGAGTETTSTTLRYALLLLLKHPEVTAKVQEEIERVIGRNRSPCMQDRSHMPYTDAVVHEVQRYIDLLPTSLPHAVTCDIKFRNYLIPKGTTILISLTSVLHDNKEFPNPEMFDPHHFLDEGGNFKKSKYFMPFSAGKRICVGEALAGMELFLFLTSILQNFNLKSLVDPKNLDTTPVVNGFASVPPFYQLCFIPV

[2] = target: Histone deacetylase 3 (Homo sapiens) (UniProt O15379); experiment: Inhibition of recombinant human HDAC3 by fluorescence based microplate reader analysis
Chain of Histone deacetylase 3 (Homo sapiens) (O15379 whole entry): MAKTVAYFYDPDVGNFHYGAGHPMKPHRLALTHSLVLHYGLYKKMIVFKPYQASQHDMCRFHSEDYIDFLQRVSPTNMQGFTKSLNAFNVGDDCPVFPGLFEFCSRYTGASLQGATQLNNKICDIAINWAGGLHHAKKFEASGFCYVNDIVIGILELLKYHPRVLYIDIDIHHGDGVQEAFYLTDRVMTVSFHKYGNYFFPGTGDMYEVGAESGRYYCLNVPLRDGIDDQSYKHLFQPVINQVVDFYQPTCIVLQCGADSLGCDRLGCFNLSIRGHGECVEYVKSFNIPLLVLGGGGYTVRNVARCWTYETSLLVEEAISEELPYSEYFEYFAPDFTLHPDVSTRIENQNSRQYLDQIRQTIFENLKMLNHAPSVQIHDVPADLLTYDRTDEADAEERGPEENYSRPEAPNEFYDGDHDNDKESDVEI

Cytochrome P450 1A2 = target: T1, Cytochrome P450 1A2 (Homo sapiens, UniProt P05177); experiment: Inhibition of CYP1A2 in human liver microsomes by luminescence based P450-[…] assay; type: ADME
T1 sequence (P05177 whole entry): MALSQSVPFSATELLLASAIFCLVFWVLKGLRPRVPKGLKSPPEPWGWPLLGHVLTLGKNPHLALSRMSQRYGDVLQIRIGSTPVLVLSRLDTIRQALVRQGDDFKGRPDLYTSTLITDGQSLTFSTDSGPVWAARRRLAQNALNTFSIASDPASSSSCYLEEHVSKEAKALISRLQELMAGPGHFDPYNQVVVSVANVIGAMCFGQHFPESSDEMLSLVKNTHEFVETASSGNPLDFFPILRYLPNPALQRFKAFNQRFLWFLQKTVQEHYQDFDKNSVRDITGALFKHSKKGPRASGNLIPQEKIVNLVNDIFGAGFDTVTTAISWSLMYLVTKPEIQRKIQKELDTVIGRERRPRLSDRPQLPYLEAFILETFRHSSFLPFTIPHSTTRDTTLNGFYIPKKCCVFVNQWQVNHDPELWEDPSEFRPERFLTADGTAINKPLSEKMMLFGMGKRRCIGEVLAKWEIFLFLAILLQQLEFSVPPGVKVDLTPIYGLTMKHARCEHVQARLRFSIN

[3] = target: T2, Protein deacetylase HDAC6 (Homo sapiens) (UniProt Q9UBN7); experiment: Inhibition of recombinant human HDAC6 by fluorescence based microplate reader analysis
T2 sequence (whole entry): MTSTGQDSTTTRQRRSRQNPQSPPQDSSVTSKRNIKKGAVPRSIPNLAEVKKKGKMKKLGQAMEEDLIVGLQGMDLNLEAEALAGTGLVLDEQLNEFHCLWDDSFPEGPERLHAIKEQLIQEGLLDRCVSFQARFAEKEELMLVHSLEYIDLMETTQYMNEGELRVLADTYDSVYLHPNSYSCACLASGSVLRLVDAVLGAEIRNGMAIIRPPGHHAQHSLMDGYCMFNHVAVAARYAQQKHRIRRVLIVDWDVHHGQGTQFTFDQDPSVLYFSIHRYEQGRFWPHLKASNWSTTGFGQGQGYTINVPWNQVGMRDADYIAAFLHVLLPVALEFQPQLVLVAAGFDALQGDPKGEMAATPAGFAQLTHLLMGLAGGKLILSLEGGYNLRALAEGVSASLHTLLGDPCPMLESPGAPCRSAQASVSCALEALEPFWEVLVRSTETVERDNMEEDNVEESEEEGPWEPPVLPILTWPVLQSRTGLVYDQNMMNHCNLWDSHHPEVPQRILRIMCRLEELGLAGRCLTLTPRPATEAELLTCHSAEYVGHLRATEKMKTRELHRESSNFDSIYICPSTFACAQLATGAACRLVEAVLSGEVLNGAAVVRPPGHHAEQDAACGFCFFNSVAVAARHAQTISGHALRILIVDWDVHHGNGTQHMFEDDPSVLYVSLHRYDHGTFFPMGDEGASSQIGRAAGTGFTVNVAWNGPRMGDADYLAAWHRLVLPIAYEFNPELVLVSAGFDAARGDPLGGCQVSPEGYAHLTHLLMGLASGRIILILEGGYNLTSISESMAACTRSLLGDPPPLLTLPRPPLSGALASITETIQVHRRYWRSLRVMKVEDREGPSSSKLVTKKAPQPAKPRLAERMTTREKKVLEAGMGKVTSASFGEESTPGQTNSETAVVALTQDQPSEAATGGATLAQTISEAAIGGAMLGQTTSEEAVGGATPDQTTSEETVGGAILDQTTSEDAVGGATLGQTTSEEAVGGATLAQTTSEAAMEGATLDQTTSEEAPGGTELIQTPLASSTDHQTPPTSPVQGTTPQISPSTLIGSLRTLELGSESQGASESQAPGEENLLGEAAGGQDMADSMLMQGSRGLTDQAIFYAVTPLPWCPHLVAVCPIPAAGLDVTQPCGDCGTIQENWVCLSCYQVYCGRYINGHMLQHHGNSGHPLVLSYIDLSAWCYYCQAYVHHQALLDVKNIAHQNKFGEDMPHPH

Chain of Histone deacetylase 1 (Homo sapiens) (Q13547 whole entry): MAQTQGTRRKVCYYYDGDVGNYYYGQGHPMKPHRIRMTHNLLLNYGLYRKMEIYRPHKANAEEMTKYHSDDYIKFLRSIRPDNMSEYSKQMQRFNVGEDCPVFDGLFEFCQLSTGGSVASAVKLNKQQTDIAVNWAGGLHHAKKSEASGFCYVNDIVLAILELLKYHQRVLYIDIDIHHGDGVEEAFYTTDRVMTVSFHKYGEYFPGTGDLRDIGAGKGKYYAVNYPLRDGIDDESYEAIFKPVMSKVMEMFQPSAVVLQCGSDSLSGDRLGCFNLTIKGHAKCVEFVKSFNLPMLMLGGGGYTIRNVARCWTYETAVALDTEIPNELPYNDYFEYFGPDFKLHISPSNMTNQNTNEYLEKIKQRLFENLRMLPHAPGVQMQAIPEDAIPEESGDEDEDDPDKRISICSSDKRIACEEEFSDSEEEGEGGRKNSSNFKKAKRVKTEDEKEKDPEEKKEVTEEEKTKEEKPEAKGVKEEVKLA

inhibition [1]: inactive | inhibition (INH) (Cytochrome P450 2C19): Active | inhibition (INH) (Cytochrome P450 2C9): Active | inhibition [2]: inactive | inhibition (INH) (Cytochrome P450 1A2): Active | inhibition [3]: inactive
SMILES: COc1ccccc1-c1cc(-c2cccnc2)nc(N)n1
